According to article PMC8983325 (Protein & Cell, 2022):
Several values for one entry are separate records, joined by “and”; a condition that tells them apart may be missing. Equal entries are not always repeated. Where two headings read alike, the source gives them in different places.

What was measured:
[1] = biological target: T1, SARS2-PLpro (Severe acute respiratory syndrome coronavirus 2, UniProt P0DTD1); assay type: binding, SARS-CoV-2
[2] = tested on: ISG15 and PKR expression
[3] = tested on: hCoV-229E; assay type: cell-based
[4] = tested on: Huh-7, VeroE6/TMPRSS2, Calu-3, Caco-2, BSC-1 cells and human embryonic lung fibroblasts (HELF)
[5] = biological target: T1, SARS2-PLpro; assay type: biochemical; settings: read-out: IC50 against SARS2-PLpro
[6] = tested on: SARS-CoV-2; assay type: cell-based
[7] = tested on: ISG15 and PKR expression; assay type: cell-based
[8] = biological target: MERS-PLpro_WT (Middle East respiratory syndrome-related coronavirus, UniProt K9N7C7); assay type: binding
Chain of MERS-PLpro_WT (K9N7C7 1552-1823 limits assumed): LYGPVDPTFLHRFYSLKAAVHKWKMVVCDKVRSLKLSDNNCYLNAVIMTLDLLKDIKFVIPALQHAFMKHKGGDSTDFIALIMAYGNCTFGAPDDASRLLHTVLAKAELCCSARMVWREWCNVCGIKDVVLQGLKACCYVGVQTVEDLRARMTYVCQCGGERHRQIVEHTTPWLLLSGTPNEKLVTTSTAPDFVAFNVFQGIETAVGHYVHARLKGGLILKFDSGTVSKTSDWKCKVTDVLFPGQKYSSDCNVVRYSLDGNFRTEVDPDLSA

[9] = tested on: SARS-CoV-2; parameters: species or system golden Syrian hamster; settings: hamster, in vivo
[10] = tested on: human DUBs; assay type: biochemical
[11] = tested on: SARS-CoV-2; assay: microbe, parasite or virus in culture; assay type: cell-based
[12] = tested on: PLpro-mediated IFN suppression (SARS2-PLpro, MERS-PLpro); assay type: cell-based
[13] = tested on: hCoV-OC43; assay type: cell-based
[14] = tested on: SARS-CoV-2; assay type: cell-based; remark: listed apart in the source
[15] = tested on: MERS-CoV; assay type: cell-based
[16] = biological target: T1, SARS2-PLpro; assay type: biochemical
[17] = tested on: cellular proteases (serine, cysteine and acid proteases); assay type: biochemical
[18] = tested on: MERS-CoV; assay type: cell-based; remark: listed apart in the source
[19] = tested on: MERS-CoV; assay: microbe, parasite or virus in culture; assay type: cell-based
[20] = biological target: MERS-PLpro (Middle East respiratory syndrome-related coronavirus, UniProt K9N7C7); assay type: biochemical
Chain of MERS-PLpro (K9N7C7 1552-1823 limits assumed): as above

[21] = Severe acute respiratory syndrome coronavirus 2, read-out: EC50 anti-SARS-CoV-2

Compound: O=C(Nc1ccccc1Cl)c1sc(=S)n2c1[nH]c(=O)c1ccccc12 [F0213]
- KD of F0213 to SARS2-PLpro pre-incubated with GRL0617 [1]: undetectable
- binding affinity to SARS2-PLpro relative to GRL0617 (fold less) [1]: around 5 fold
- Kd ([1]; read-out: Kd, SARS2-PLpro): 40.5 µM
- expression of ISG15 and PKR, SARS-CoV-2-infected Caco-2 cells [2]: significantly enhanced
- decrease of viral yields, hCoV-229E [3]: about 2 log10
- cytotoxicity in the matching cell lines [4]: negligible cytotoxicity
- IC50 [5]: 7.4 µM
- NP antigen immunofluorescence, SARS-CoV-2-infected Vero cells [6]: significant inhibition of virus replication
- transcription levels of ISG15 and PKR, MERS-CoV-infected Huh-7 cells [7]: reduced
- Kd ([8]; read-out: KD, MERS-PLpro WT): 0.95 µM
- decrease of infectious viral PFU in lung tissues [9]: 1–2 log10
- lung histology scores [9]: significantly reduced
- suppression of SARS-CoV-2 genome copies (normalized by β-actin) in the lungs [9]: comparable degree of suppression
- modification of cellular DUBs by HA-Ub-VS [10]: no change
- EC50 [11, 21]: 4.55 µM
- EC50 ([11]; read-out: EC50 anti-SARS-CoV-2): 4.55 µM and 4.5 µM
- IFN-β, IRF3 and NF-κB reporter gene expression under PLpro suppression [12]: rescued the genes expression in a dose-dependent manner
- decrease of viral yields, hCoV-OC43 [13]: around 1.5 log10
- reduction of SARS-CoV-2 viral yields [14]: more than 1 log10
- NP antigen immunofluorescence, MERS-CoV-infected Vero cells [15]: significant inhibition of virus replication
- modification of PLpro by HA-Ub-VS [16]: almost completely eliminated
- cellular protease activity [17]: not affected
- decrease of viral yields, MERS-CoV [18]: about 3 log10
- EC50 ([19]; Middle East respiratory syndrome-related coronavirus, read-out: antiviral EC50 against MERS-CoV): 1.54 µM

Compound: Cc1cccc(NC(=O)c2sc(=S)n3c2[nH]c(=O)c2cc4c(cc23)OCO4)c1 [F0393]
- IC50 [5]: 15.8 µM
- EC50 [11, 21]: 15.6 µM

Compound: N#C[C@@]1(c2ccc3c(N)ncnn23)O[C@H](CO)[C@@H](O)[C@H]1O [GS-441524, reference compound]
- decrease of infectious viral PFU in lung tissues [9]: comparable
- lung histology scores [9]: significantly reduced
- suppression of SARS-CoV-2 genome copies (normalized by β-actin) in the lungs [9]: comparable degree of suppression

Compound: CCC(CC)COC(=O)[C@H](C)N[P@](=O)(OC[C@H]1O[C@@](C#N)(c2ccc3c(N)ncnn23)[C@H](O)[C@@H]1O)Oc1ccccc1 [remdesivir]
- NP antigen immunofluorescence, SARS-CoV-2-infected Vero cells [6]: significant inhibition of virus replication
- NP antigen immunofluorescence, MERS-CoV-infected Vero cells [15]: significant inhibition of virus replication

Compound: GRL0617 [reference compound]
- effect on MERS-PLpro activity [20]: ineffective
- NP antigen immunofluorescence, SARS-CoV-2-infected Vero cells [6]: marginal virus suppression
- KD, MERS-PLpro WT [8]: no binding affinity
- NP antigen immunofluorescence, MERS-CoV-infected Vero cells [15]: marginal virus suppression
- inhibition against MERS-CoV [19]: no inhibition
